According to BindingDB's records for doi:10.1021/jm3004174 (Taiho Pharmaceutical, 2012):

Experiment: Inhibition of dUTPase in human HeLa S3 cells assessed as potentiation of 1 uM FdUrd-induced decrease in cell density incubated for 24 hrs by crystal violet assay

Compared with `CC[C@@H](Cn1nncc1CCCCn1ccc(=O)[nH]c1=O)c1cccc(OCC2CC2)c1`, `O=c1ccn(CCCCc2cnnn2CCc2cccc(OCC3CC3)c2)c(=O)[nH]1` is 5.2-fold higher in EC50: 50 nM for the first, 260 nM for the second. The first is the more potent here.

First: O=c1ccn(CCCc2cnnn2CC(c2ccccc2)c2ccccc2)c(=O)[nH]1
Second: CC[C@@](O)(Cn1nncc1CCCCn1ccc(=O)[nH]c1=O)c1ccc(F)c(OCC2CC2)c1
The EC50 of the first is 16-fold higher: 1100 nM for the first, 70 nM for the second. The second is the more potent here.
